Experimental data from patent EP0666253A1, “N-t-BUTYLANILINE ANALOG AND LIPID LEVEL DEPRESSANT CONTAINING THE SAME” (priority 1992, dated 1994).
Counter-ions that a name gives are not always drawn. Like-named read-outs stand apart in the source and are kept apart here.

Assays:
[1] = in vivo; conditions: mouse
Protocol: Acute toxicity was examined in the Litchfield and Wilcoxon's method where 10 ICR male mice were orally given a test compound.
The LD₅₀ of clofibrate was 1600 mg/kg.

[2] = system: hepatic parenchymal cells; assay: Action on incorporation of LDL (radioisotope-labeled LDL, primary culture); format: cell-based, male Wistar strain rat; conditions: Rattus norvegicus; relative to the control (DMSO only); test compound 10 µg/ml, incubated 24 hours, then labeled LDL for 4 hours; read-out: incorporation ratio of LDL
Protocol: hepatic cells were separated from the liver of a male Wistar strain rat weighing about 200 g, and the hepatic parenchymal cells were incubated in primary culture. 48 hours thereafter, a solution of a test compound in dimethylsulfoxide (DMSO) (10 µg/ml) was added thereto and incubated for 24 hours. Then, a radioisotope-labeled low density lipoprotein (LDL) was added thereto, and incubation was continued for further 4 hours. The cells were washed with physiological saline and then lysed with sodium dodecyl sulfate (SDS), and their radioactivity was determined in a liquid scintillation counter. The control group was treated in the same manner as above except for the addition of DMSO only. […] In Table 5, the test compounds 1 to 11 correspond respectively to the hydrochlorides of the compounds of Examples 1 to 11.

[3] = system: lipid level in blood; assay: Action on the lipid level in blood (rats on high cholesterol feed); format: in vivo, Male Wistar strain rats; conditions: Rattus norvegicus, relative to the control, oral 25 mg/kg/day, starved 24 hours after final administration; for change in vivo at 25 mg/kg/day: high density lipoprotein-cholesterol, read-out: HDL-Ch increase rate
Protocol: Male Wistar strain rats with weights of about 200 g were given a high cholesterol feed containing 1 % cholesterol and 0.5 % cholic acid. Simultaneously, a suspension of a test compound in 5 % aq. gum arabic was orally administered in an amount of 25 mg/kg/day. After the final administration, the animals were starved for 24 hours and then evaluated for serum total cholesterol (TC), high density lipoprotein-cholesterol (HDL-Ch) and serum triglyceride (TG) content. The control group was orally given 5 % aq. solution of gum arabic. […] In Table 4, test compounds Nos. 1 to 11 correspond respectively to the hydrochlorides of the compounds of Examples 1 to 11.

[4] = serum total cholesterol, suspension in 5 % aq. gum arabic, read-out: TC decrease rate
[5] = serum triglyceride, read-out: TG decrease rate

| SMILES | LD50 ([1]; male, ICR, po) [mg/kg] | activation at 10 µg/mL [2] [%] | change in vivo at 25 mg/kg/day [3] [%] | inhibition in vivo at 25 mg/kg/day [3, 4] [%] | inhibition in vivo at 25 mg/kg/day [3, 5] [%] | LD50 ([1]; oral, 10 ICR male mice, read-out: LD₅₀) [mg/kg] |
| --- | --- | --- | --- | --- | --- | --- |
| CCOC(=O)C(C)(C)Oc1ccc(Cl)cc1 [clofibrate] | 1600 | -10.5 | -1.6 | 1.2 | -0.9 |  |
| CC(C)(C)N(c1ccc(Oc2ccccc2)cc1)S(C)(=O)=O [compound of Reference Example 3, 4-(N-t-butyl)methanesulfonylaminodiphenyl ether] |  | -15.7 | -0.7 | 3.6 | -2.1 |  |
| CCN(CC)c1ccc(Sc2ccc(C)cc2)cc1 [compound of Reference Example 4, N,N-diethyl-4-(4-tolylthio)aniline] |  |  |  | -16.2 | 30 |  |
| CC(C)(C)Nc1ccc(Sc2ccccc2)cc1 [test compound 1, 4-(t-butylamino)diphenylsulfide hydrochloride] |  | 65.3 | 39.4 | 95.7 | 48.5 | > 5000 |
